Source: ChEMBL document CHEMBL4145442, “Novel LCK/FMS inhibitors based on phenoxypyrimidine scaffold as potential treatment for inflammatory disorders” (Eur J Med Chem, 2017)
The source made the active and inactive calls. The rule behind the calls is not given here.

What was measured:
[1] = target: T1, Tyrosine-protein kinase Lck (Homo sapiens, UniProt P06239); experiment: Inhibition of LCK (unknown origin) after 120 mins in presence of 33P-ATP
Target sequence in this assay (P06239 whole entry): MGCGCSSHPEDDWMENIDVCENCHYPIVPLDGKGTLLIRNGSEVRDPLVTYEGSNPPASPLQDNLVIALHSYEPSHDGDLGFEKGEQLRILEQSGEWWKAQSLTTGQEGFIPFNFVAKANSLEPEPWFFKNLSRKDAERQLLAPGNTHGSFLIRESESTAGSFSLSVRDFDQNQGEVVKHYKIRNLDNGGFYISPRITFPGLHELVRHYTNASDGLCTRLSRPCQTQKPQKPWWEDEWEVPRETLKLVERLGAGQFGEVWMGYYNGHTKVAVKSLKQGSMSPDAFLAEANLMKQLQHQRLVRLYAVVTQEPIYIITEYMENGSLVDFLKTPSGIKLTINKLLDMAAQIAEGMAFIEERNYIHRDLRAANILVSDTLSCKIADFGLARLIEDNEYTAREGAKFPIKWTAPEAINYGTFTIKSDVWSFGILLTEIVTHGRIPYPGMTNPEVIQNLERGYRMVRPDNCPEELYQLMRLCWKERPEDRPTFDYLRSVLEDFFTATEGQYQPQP

[2] = target: T1, Tyrosine-protein kinase Lck; experiment: Inhibition of LCK (unknown origin) assessed as remaining activity at 3 x 10^-5 M after 120 mins in presence of 33P-ATP (reference value: […]% to […]%); details: at 30 µM
Target sequence in this assay (P06239 2-509 limits assumed): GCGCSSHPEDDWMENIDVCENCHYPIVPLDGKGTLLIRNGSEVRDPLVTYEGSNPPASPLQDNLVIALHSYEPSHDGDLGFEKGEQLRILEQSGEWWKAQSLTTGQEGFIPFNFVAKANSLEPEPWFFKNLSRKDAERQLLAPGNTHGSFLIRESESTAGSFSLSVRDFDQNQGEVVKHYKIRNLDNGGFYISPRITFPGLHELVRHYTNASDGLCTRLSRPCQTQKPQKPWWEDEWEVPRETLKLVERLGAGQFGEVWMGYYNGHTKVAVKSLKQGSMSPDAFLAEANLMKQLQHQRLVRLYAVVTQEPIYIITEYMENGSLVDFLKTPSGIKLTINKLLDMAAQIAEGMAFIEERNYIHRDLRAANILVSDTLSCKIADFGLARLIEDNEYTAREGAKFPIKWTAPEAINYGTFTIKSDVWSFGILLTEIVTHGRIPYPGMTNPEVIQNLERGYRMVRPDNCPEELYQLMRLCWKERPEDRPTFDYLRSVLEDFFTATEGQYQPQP

[3] = target: T1, Tyrosine-protein kinase Lck; experiment: Inhibition of LCK (unknown origin) assessed as remaining activity at […] x 10^-6 M after 120 mins in presence of 33P-ATP (reference value: […]% to […]%)
Target sequence in this assay (P06239 2-509 limits assumed): as above

[4] = target: T1, Tyrosine-protein kinase Lck; experiment: Inhibition of LCK (unknown origin) assessed as remaining activity at 1 x 10^-5 M after 120 mins in presence of 33P-ATP (reference value: […]% to […]%); details: at 10 µM
Target sequence in this assay (P06239 2-509 limits assumed): as above

[5] = target: T1, Tyrosine-protein kinase Lck; experiment: Inhibition of LCK (unknown origin) assessed as remaining activity at 3.7 x 10^-7 M after 120 mins in presence of 33P-ATP (reference value: […]% to […]%); details: at 0.37 µM
Target sequence in this assay (P06239 2-509 limits assumed): as above

[6] = target: T1, Tyrosine-protein kinase Lck; experiment: Inhibition of LCK (unknown origin) assessed as remaining activity at 3.33 x 10^-6 M after 120 mins in presence of 33P-ATP (reference value: […]% to […]%); details: at 3.33 µM
Target sequence in this assay (P06239 2-509 limits assumed): as above

[7] = (§1) Cytotoxicity against mouse RAW264.7 cells after 4 hrs by MTT assay; type: cell-based; details: mouse, RAW264.7 cells
RAW264.7 [8] = experiment: Inhibition of LPS-induced NO production in mouse RAW264.7 cells after 24 hrs by Griess assay; type: functional, cell-based; details: RAW264.7, 24 h
[9] = target: Macrophage colony-stimulating factor 1 receptor (Homo sapiens, UniProt P07333); experiment: Inhibition of FMS (unknown origin) after 120 mins in presence of 33P-ATP
RAW264.7 [10] = experiment: Antiinflammatory activity against mouse RAW264.7 cells assessed as inhibition of LPS induced COX-2 protein expression at 3 to 12 uM after 24 hrs by Western blot analysis; type: functional, cell-based
RAW264.7 [11] = experiment: Antiinflammatory activity in mouse RAW264.7 cells assessed as inhibition of LPS-induced PGE2 production after 24 hrs by enzyme immunoassay; type: functional, cell-based; details: RAW264.7, 24 h
RAW264.7 [12] = experiment: Potency index, ratio of L-NIL IC50 to compound IC50 for inhibition of LPS-induced NO production in mouse RAW264.7 cells; type: functional
RAW264.7 [13] = experiment: Antiinflammatory activity against mouse RAW264.7 cells assessed as inhibition of LPS-induced iNOS protein expression at 3 to 12 uM after 24 hrs by Western blot analysis; type: functional, cell-based
[14] = target: High affinity nerve growth factor receptor (Homo sapiens, UniProt P04629)
Description: Inhibition of TRKA (unknown origin)

RAW264.7 [15] = experiment: as §1; type: cell-based; details: Mus musculus, RAW264.7, 4 h
[16] = target: Tyrosine-protein kinase Lyn (Homo sapiens, UniProt P07948)
Chain of Tyrosine-protein kinase Lyn (P07948 whole entry): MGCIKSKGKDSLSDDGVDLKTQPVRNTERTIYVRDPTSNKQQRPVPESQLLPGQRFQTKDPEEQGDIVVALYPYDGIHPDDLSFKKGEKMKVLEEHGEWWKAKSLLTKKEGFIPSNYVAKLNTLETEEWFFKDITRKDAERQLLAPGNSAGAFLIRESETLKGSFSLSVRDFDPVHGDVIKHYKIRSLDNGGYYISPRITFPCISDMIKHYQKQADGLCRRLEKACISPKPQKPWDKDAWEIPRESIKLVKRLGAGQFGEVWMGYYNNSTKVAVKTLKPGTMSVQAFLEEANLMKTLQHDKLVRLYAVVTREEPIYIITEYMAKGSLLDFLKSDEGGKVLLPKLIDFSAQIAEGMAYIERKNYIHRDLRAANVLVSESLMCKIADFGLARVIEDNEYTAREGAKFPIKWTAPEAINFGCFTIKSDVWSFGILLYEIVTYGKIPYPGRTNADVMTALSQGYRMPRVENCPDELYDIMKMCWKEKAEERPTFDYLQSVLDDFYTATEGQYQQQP
Description: Inhibition of LYN (unknown origin)

Chain of Macrophage colony-stimulating factor 1 receptor (P07333 whole entry): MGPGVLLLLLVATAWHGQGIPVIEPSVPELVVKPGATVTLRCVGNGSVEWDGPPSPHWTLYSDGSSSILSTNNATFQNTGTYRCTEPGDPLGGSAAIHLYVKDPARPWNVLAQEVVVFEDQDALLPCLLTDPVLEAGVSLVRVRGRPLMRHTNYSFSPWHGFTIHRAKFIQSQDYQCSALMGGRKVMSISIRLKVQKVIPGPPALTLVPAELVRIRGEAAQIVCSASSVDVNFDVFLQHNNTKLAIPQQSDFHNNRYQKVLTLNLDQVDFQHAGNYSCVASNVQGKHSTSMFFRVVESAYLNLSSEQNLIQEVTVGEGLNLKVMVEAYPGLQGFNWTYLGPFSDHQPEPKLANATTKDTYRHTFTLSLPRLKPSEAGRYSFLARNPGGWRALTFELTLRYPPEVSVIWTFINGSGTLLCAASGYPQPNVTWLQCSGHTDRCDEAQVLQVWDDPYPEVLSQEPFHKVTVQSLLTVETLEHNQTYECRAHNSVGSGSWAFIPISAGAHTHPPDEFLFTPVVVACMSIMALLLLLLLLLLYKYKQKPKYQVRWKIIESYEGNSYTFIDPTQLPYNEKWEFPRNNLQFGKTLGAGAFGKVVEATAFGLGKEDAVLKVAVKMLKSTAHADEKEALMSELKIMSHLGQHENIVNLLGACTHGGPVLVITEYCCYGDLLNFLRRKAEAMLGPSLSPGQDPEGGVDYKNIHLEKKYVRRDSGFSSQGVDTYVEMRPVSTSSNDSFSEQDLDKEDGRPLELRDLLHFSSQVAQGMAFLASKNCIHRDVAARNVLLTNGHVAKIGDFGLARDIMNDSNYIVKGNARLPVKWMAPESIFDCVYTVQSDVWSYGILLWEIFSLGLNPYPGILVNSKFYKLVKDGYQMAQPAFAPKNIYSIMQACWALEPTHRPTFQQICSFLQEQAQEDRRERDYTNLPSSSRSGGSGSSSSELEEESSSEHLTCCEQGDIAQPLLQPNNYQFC
Chain of High affinity nerve growth factor receptor (P04629 whole entry): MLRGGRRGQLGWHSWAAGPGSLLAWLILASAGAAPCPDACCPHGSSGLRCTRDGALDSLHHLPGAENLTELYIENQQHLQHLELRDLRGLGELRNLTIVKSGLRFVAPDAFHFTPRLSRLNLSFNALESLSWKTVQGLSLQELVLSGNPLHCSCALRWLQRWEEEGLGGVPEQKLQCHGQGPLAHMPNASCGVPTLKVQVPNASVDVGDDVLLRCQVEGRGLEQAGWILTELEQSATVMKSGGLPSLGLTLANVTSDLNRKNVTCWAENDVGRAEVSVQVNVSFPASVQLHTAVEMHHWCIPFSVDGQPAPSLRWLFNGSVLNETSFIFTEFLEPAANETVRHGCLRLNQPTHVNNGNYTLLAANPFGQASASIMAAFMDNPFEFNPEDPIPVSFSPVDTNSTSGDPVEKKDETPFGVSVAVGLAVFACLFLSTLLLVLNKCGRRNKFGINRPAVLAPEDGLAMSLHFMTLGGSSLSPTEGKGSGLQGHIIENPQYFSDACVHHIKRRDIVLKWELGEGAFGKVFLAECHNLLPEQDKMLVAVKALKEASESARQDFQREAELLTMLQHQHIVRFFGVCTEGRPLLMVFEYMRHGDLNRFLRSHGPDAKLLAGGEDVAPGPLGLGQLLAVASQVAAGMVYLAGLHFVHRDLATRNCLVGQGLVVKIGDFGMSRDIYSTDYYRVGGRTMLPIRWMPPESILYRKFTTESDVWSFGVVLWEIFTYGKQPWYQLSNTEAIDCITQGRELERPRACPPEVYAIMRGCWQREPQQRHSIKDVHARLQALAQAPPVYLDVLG

Row | IC50 [1] | Activity [2] | Activity [3] | Activity [4] | Activity [5] | Activity [6] | Compound | IC80 at 4 h [7] | IC50 (RAW264.7 [8]) | IC50 [9] | inhibition (RAW264.7 [10]) | IC50 (RAW264.7 [11]) | Ratio IC50 (RAW264.7 [12]) | inhibition (RAW264.7 [13]) | IC50 [14] | IC50 (RAW264.7 [15]) | IC50 [16]
1 | 22.1 µM | 44.9 to 45.8% | 83.5 to 91.3% | 61.3 to 65.9% | 92.7 to 92.9% | 68.8 to 76.6% | COc1cc(C)ccc1Oc1nc(Nc2ccc(N3CCOCC3)cc2)ncc1NCc1cccc(OC(F)(F)F)c1 | – | – | – | – | – | – | – | – | – | –
2 | 1.86 µM | 24 to 26.5% | 52.6 to 55.2% | 25.4 to 28.1% | 74.3 to 74.7% | 34.8 to 36.1% | COc1cc(/C=N/c2cnc(Nc3ccc(N4CCOCC4)cc3)nc2Oc2cccc(OC)c2)cc(OC)c1 | – | – | 0.0086 µM | – | – | – | – | – | – | –
3 | 5.48 µM | 35.9 to 36.2% | 82.2 to 82.9% | 33.8 to 33.9% | 97.2 to 97.4% | 54.2 to 56% | COc1ccccc1NC(=O)Nc1cnc(Nc2ccc(N3CCOCC3)cc2)nc1Oc1ccc(C)cc1OC | – | – | – | – | – | – | – | – | – | –
4 | > 100 µM | 65.4 to 70% | 90.9 to 97.7% | 70.1 to 74.8% | 98.6 to 101% | 80.2 to 80.7% | COc1cc(C)ccc1Oc1nc(Nc2ccc(N3CCOCC3)cc2)ncc1NC(=O)Nc1cc(Cl)cc(Cl)c1 | – | – | – | – | – | – | – | – | – | –
5 | – | – | – | – | – | – | CS(=O)(=O)Nc1ccc([N+](=O)[O-])cc1OC1CCCCC1 [NS-398] | – | – | – | – | 0.00723 µM | – | – | – | – | –
6 | 0.312 µM | 2.49 to 2.9% | 20 to 20.2% | 7.08 to 7.66% | 43.1 to 46.1% | 11.2 to 11.3% | COc1cc(C)ccc1Oc1nc(Nc2ccc(N3CCOCC3)cc2)ncc1NCc1ccc(Cl)cc1 | – | – | – | – | – | – | – | – | – | –
7 | 10.3 µM | 39 to 39.6% | 86.7 to 89% | 46.5 to 47% | 99.1 to 99.3% | 67.3 to 72.8% | COc1cc(OC)cc(C(=O)Nc2cnc(Nc3ccc(N4CCOCC4)cc3)nc2Oc2ccc(C)cc2OC)c1 | – | – | – | – | – | – | – | – | – | –
8 | 3.3 µM | 21.3 to 22.5% | 59.5 to 61.6% | 43.7 to 45.1% | 84.9 to 85.4% | 45 to 47.1% | COc1cc(C)ccc1Oc1nc(Nc2ccc(N3CCOCC3)cc2)ncc1NCc1ccc(OC(F)(F)F)cc1 | – | – | – | – | – | – | – | – | – | –
9 | 3.17 µM | 65.3 to 69.2% | 62.5 to 64.3% | 39.9 to 41% | 76.7 to 83.1% | 42.7 to 47.8% | COc1cc(/C=N/c2cnc(Nc3ccc(N4CCOCC4)cc3)nc2Oc2ccc(F)cc2)cc(OC)c1 | – | – | 0.021 µM | – | – | – | – | – | – | –
10 | > 100 µM | 74.2 to 74.8% | 89.3 to 89.9% | 78.1 to 84.5% | 96 to 100% | 83.8 to 90.7% | COc1cc(NC(=O)Nc2cnc(Nc3ccc(N4CCOCC4)cc3)nc2Oc2ccc(C(F)(F)F)cc2)cc(OC)c1 | – | – | – | – | – | – | – | – | – | –

Row | Compound | IC50 [1] | Activity [2] | Activity [3] | Activity [4] | Activity [5] | Activity [6] | IC80 at 4 h [7] | IC50 (RAW264.7 [8]) | IC50 [9] | inhibition (RAW264.7 [10]) | IC50 (RAW264.7 [11]) | Ratio IC50 (RAW264.7 [12]) | inhibition (RAW264.7 [13]) | IC50 [14] | IC50 (RAW264.7 [15]) | IC50 [16]
11 | COc1cc(C)ccc1Oc1nc(Nc2ccc(N3CCOCC3)cc2)ncc1/N=C/c1ccccc1Cl | 0.225 µM | 6.29 to 7.37% | 26.9 to 29.3% | 11.3 to 11.5% | 42.5 to 42.8% | 13.4 to 15.1% | > 1 µM | > 1 µM | – | – | – | – | – | – | – | –
12 | COc1ccc(Oc2nc(Nc3ccc(N4CCOCC4)cc3)ncc2/N=C/c2cc(OC)cc(OC)c2)cc1 | 0.022 µM | 44.8 to 48.5% | 37.8 to 39.9% | 27.4 to 28.3% | 53.2% | 30.3 to 32.9% | > 12 µM | 10.3 µM | 0.0046 µM | inactive | 5.22 µM | >2.5 | Active | – | – | –
13 | COc1cc(NC(=O)Nc2cnc(Nc3ccc(N4CCOCC4)cc3)nc2Oc2ccc(C)cc2OC)cc(OC)c1 | 0.502 µM | – | – | – | – | – | – | > 80 µM | – | – | – | – | – | 8.54 µM | > 80 µM | 4.2 µM
14 | COc1cc(C)ccc1Oc1nc(Nc2ccc(N3CCOCC3)cc2)ncc1/N=C/c1cccc(OC(F)(F)F)c1 | 0.0335 µM | 41.7 to 50.1% | 26.8 to 27.9% | 49 to 54.7% | 39.2 to 39.8% | 41.1 to 43.7% | < 5 µM | > 20 µM | – | – | – | – | – | – | – | –
15 | COc1cc(C)ccc1Oc1nc(Nc2ccc(N3CCOCC3)cc2)ncc1/N=C/c1cc(Cl)cc(Cl)c1 | 0.0065 µM | 38.9 to 40.7% | 26.7 to 26.9% | 37.1% | 35.8 to 36.1% | 32.8 to 33.6% | 0.987 µM | > 1 µM | – | – | – | – | – | – | – | –
16 | COc1cc(/C=N/c2cnc(Nc3ccc(N4CCOCC4)cc3)nc2Oc2ccc(C)cc2OC)cc(OC)c1 | 0.106 µM | 4.38 to 7.22% | 21.3 to 26.9% | 7.1 to 8.37% | 28.8 to 37.5% | 10.3 to 12.6% | > 1 µM | > 1 µM | 0.883 µM | – | – | – | – | – | – | –
17 | COc1ccc(OC)c(/C=N/c2cnc(Nc3ccc(N4CCOCC4)cc3)nc2Oc2ccc(C)cc2OC)c1 | 0.11 µM | 8.37 to 10.1% | 19.9 to 21.8% | 12.5 to 14.4% | 38.7 to 38.9% | 12.8 to 13.1% | > 1 µM | > 1 µM | – | – | – | – | – | – | – | –
